Measurements taken from patent US7795281B2, “Optically active dihydropyridine derivative” (Daiichi Sankyo Company, Limited, priority 2002, dated 2010).

What was measured:
L calcium channel = target: T1, L calcium channel (Sus scrofa, UniProt A0A8W4FNC0); assay: Receptor binding experiment using porcine myocardial microsomes (3H-nitrendipine); settings: for IC50 / Ki: porcine myocardial microsomes, average of two experiments; for IC50: 3H-nitrendipine 0.1 nM, read-out: IC50 (50% inhibitory concentration of specific binding); for Ki: Ki=IC50/(1+[L]/Kd), read-out: Ki (inhibition constant)
T1 construct: from tissue; host or cells: porcine myocardium (microsome fraction)
Protocol: Receptor Binding Experiment Using Porcine Myocardial Microsomes
Porcine myocardial microsomes were used for the source of the L calcium channel, while ^3H-nitrendipine was used for the ligand of the L calcium channel. The microsomes (0.2 mg protein/ml), ^3H-nitrendipine (0.1 nM) and test drug (racemic form, R form or S form) were allowed to react at room temperature for 30 minutes in HEPES buffer (50 mM, pH 7.4) followed by measurement of the ^3H-nitrendipine that bound to the microsome fraction with a liquid scintillation counter. The count in the presence of 10 μM non-labeled nitrendipine (amount of non-specific binding) was then subtracted to determine the amount of specific binding. The relationship between the concentration and inhibition rate of specific binding was approximated to a logistic curve for each test drug to determine IC50 (50% inhibitory concentration of specific binding). The Ki value (inhibition constant) for each test drug was then determined from the following formula using the Kd (dissociation constant) of nitrendipine as separately determined from a Scatchard plot: Ki=IC50/(1+[L]/Kd) (wherein [L] is the concentration of ^3H-nitrendipine).

[1] = tested on: male spontaneously hypertensive rats; assay: Blood pressure lowering action in hypertensive rats; type: in vivo, rat
Protocol: Blood Pressure Lowering Action in Hypertensive Rats
Cannulas for measuring blood pressure and administering drug were inserted into the inguinal artery and inguinal vein, respectively, of male spontaneously hypertensive rats age 25 to 29 weeks followed by intravenous administration of a compound under anesthesia and measurement of blood pressure over time for the course of 120 minutes.
The results of comparing the racemic form (20 μg/kg) and R form (10 μg/kg) are shown in Table 2, while the results of comparing the R form (3 μg/kg, 10 μg/kg) and the S form (1000 μg/kg) in a different series of experiments are shown in Table 3.

T1 sequence (A0A8W4FNC0 1-2067): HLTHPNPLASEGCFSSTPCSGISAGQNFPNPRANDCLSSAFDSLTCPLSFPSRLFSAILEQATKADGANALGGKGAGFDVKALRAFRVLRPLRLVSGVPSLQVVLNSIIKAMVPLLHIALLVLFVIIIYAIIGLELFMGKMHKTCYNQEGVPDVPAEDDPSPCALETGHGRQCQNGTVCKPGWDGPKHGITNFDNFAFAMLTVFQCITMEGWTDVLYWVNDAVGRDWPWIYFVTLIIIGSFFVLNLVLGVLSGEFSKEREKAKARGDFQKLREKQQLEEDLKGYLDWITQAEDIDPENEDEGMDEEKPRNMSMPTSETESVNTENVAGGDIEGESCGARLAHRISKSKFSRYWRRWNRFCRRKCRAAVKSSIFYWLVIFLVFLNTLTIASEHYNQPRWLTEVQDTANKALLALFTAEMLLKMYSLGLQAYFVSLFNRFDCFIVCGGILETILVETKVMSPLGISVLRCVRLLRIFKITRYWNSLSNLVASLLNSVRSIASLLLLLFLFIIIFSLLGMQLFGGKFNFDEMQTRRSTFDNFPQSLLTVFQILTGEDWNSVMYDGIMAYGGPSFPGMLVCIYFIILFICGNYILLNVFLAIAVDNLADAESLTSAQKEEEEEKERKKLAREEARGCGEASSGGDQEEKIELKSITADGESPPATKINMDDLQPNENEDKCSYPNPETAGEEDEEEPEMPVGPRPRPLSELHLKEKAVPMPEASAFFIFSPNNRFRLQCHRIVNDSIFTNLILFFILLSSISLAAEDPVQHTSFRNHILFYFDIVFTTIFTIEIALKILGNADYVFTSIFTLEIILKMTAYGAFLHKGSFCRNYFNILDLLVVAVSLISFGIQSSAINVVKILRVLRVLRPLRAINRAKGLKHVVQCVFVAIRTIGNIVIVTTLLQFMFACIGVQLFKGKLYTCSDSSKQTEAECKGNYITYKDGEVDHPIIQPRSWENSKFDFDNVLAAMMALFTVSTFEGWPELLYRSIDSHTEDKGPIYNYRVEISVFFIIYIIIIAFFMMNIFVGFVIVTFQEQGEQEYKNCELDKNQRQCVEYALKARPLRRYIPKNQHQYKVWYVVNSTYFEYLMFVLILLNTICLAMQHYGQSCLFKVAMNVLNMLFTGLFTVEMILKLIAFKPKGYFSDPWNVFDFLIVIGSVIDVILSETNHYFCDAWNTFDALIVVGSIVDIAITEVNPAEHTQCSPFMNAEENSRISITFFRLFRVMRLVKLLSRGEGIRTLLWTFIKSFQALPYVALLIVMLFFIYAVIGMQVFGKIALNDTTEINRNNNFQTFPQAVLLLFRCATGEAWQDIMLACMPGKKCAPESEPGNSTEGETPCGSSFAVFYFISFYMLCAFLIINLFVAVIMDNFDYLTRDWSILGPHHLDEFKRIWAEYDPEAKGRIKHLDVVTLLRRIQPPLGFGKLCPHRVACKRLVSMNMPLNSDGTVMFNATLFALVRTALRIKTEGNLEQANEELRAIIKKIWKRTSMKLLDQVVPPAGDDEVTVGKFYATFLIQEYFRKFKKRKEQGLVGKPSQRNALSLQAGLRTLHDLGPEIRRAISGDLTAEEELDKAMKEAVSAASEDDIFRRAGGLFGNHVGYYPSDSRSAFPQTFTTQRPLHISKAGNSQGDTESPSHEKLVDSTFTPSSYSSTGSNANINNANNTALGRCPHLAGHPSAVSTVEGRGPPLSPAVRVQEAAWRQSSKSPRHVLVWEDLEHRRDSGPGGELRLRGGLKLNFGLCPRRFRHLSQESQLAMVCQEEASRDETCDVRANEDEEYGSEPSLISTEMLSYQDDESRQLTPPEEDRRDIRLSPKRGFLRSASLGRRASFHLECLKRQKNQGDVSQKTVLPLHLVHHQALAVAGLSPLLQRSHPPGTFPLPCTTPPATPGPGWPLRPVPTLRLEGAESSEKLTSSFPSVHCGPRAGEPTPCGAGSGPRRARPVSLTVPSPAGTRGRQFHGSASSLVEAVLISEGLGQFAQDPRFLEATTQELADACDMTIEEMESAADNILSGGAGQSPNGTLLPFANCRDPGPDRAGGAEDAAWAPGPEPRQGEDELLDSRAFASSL

In the case of `CC1=C(C(=O)OC(C)C)[C@H](c2cccc([N+](=O)[O-])c2)C(C(=O)OC2CN(C(c3ccccc3)c3ccccc3)C2)=C(N)N1` [S form, (S)-2-amino-1,4-dihydro-6-methyl-4-(3-nitrophenyl)-3,5-pyridinedicarboxylic acid 3-(1-diphenylmethylazetidin-3-yl) ester 5-isopropyl ester], the IC50 (L calcium channel) is reported as 700 nM, the Ki (L calcium channel) is reported as 460 nM and the “Change in blood pressure” value ([1]; 1000 μg/kg i.v., 0 minutes, Table 3 (different series of experiments), mean ± standard error) is reported as 0 ± 0 mmHg. For the same compound, the “Change in blood pressure” value ([1]; 1000 μg/kg i.v., 10 minutes, Table 3 (different series of experiments), mean ± standard error) was −5 ± 1 mmHg, the “Change in blood pressure” value ([1]; 1000 μg/kg i.v., 30 minutes, Table 3 (different series of experiments), mean ± standard error) was −18 ± 6 mmHg and the “Change in blood pressure” value ([1]; 1000 μg/kg i.v., 60 minutes, Table 3 (different series of experiments), mean ± standard error) was −29 ± 10 mmHg. For the same compound, the “Change in blood pressure” value ([1]; 1000 μg/kg i.v., 90 minutes, Table 3 (different series of experiments), mean ± standard error) was −36 ± 7 mmHg and the “Change in blood pressure” value ([1]; 1000 μg/kg i.v., 120 minutes, Table 3 (different series of experiments), mean ± standard error) was −35 ± 4 mmHg.

In the case of `CC1=C(C(=O)OC(C)C)C(c2cccc([N+](=O)[O-])c2)C(C(=O)OC2CN(C(c3ccccc3)c3ccccc3)C2)=C(N)N1` (racemic) [Racemic form, (±)-2-amino-1,4-dihydro-6-methyl-4-(3-nitrophenyl)-3,5-pyridinedicarboxylic acid 3-(1-diphenylmethylazetidin-3-yl) ester 5-isopropyl ester, reference compound], the IC50 (L calcium channel) is reported as 3.1 nM, the Ki (L calcium channel) is reported as 2.1 nM and the “Change in blood pressure” value ([1]; 20 μg/kg i.v., 0 minutes, Table 2, mean ± standard error) is reported as 0 ± 0 mmHg. For the same compound, the “Change in blood pressure” value ([1]; 20 μg/kg i.v., 10 minutes, Table 2, mean ± standard error) was −21 ± 2 mmHg, the “Change in blood pressure” value ([1]; 20 μg/kg i.v., 30 minutes, Table 2, mean ± standard error) was −35 ± 4 mmHg and the “Change in blood pressure” value ([1]; 20 μg/kg i.v., 60 minutes, Table 2, mean ± standard error) was −42 ± 6 mmHg. For the same compound, the “Change in blood pressure” value ([1]; 20 μg/kg i.v., 90 minutes, Table 2, mean ± standard error) was −45 ± 6 mmHg and the “Change in blood pressure” value ([1]; 20 μg/kg i.v., 120 minutes, Table 2, mean ± standard error) was −48 ± 7 mmHg.

For `CC1=C(C(=O)OC(C)C)[C@@H](c2cccc([N+](=O)[O-])c2)C(C(=O)OC2CN(C(c3ccccc3)c3ccccc3)C2)=C(N)N1` [R form, (R)-2-amino-1,4-dihydro-6-methyl-4-(3-nitrophenyl)-3,5-pyridinedicarboxylic acid 3-(1-diphenylmethylazetidin-3-yl) ester 5-isopropyl ester], the “L calcium channel inhibitory activity, potency relative to S form” value (L calcium channel; R form vs S form) was “roughly 500 times”, the “L calcium channel inhibitory activity, potency relative to racemic form” value (L calcium channel; R form vs racemic form) was “more than twice as potent” and the IC50 (L calcium channel) was 1.3 nM. The Ki (L calcium channel) was 0.88 nM, the “Change in blood pressure” value ([1]; 3 μg/kg i.v., 0 minutes, Table 3 (different series of experiments), mean ± standard error) was 0 ± 0 mmHg and the “Change in blood pressure” value ([1]; 3 μg/kg i.v., 10 minutes, Table 3 (different series of experiments), mean ± standard error) was −3 ± 3 mmHg. For the same compound, the “Change in blood pressure” value ([1]; 3 μg/kg i.v., 30 minutes, Table 3 (different series of experiments), mean ± standard error) was −14 ± 3 mmHg, the “Change in blood pressure” value ([1]; 3 μg/kg i.v., 60 minutes, Table 3 (different series of experiments), mean ± standard error) was −28 ± 3 mmHg and the “Change in blood pressure” value ([1]; 3 μg/kg i.v., 90 minutes, Table 3 (different series of experiments), mean ± standard error) was −34 ± 5 mmHg. The “Change in blood pressure” value ([1]; 3 μg/kg i.v., 120 minutes, Table 3 (different series of experiments), mean ± standard error) was −34 ± 10 mmHg, the “Change in blood pressure” value ([1]; 10 μg/kg i.v., 0 minutes, Table 2, mean ± standard error) was 0 ± 0 mmHg and the “Change in blood pressure” value ([1]; 10 μg/kg i.v., 0 minutes, Table 3 (different series of experiments), mean ± standard error) was 0 ± 0 mmHg. For the same compound, the “Change in blood pressure” value ([1]; 10 μg/kg i.v., 10 minutes, Table 2, mean ± standard error) was −17 ± 4 mmHg, the “Change in blood pressure” value ([1]; 10 μg/kg i.v., 10 minutes, Table 3 (different series of experiments), mean ± standard error) was −23 ± 5 mmHg and the “Change in blood pressure” value ([1]; 10 μg/kg i.v., 30 minutes, Table 2, mean ± standard error) was −28 ± 5 mmHg. The “Change in blood pressure” value ([1]; 10 μg/kg i.v., 30 minutes, Table 3 (different series of experiments), mean ± standard error) was −36 ± 6 mmHg, the “Change in blood pressure” value ([1]; 10 μg/kg i.v., 60 minutes, Table 2, mean ± standard error) was −43 ± 7 mmHg and the “Change in blood pressure” value ([1]; 10 μg/kg i.v., 60 minutes, Table 3 (different series of experiments), mean ± standard error) was −49 ± 11 mmHg. For the same compound, the “Change in blood pressure” value ([1]; 10 μg/kg i.v., 90 minutes, Table 2, mean ± standard error) was −45 ± 7 mmHg, the “Change in blood pressure” value ([1]; 10 μg/kg i.v., 90 minutes, Table 3 (different series of experiments), mean ± standard error) was −54 ± 8 mmHg and the “Change in blood pressure” value ([1]; 10 μg/kg i.v., 120 minutes, Table 2, mean ± standard error) was −47 ± 6 mmHg. For the same compound, the “Change in blood pressure” value ([1]; 10 μg/kg i.v., 120 minutes, Table 3 (different series of experiments), mean ± standard error) was −61 ± 6 mmHg, the “Blood pressure lowering activity, potency relative to S form” value ([1]; R form vs S form) was “roughly 300 times” and the “Blood pressure lowering activity, potency relative to racemic form” value ([1]; R form vs racemic form) was “roughly twice as potent”.
